According to patent US6262023A, “WD-40 derived peptides and uses thereof” (The Board of Trustees of the Leland Stanford Junior …, priority 1995, dated 2001):

Tests used:
PKC binding to RACK1 = test: Overlay / overlay-extraction assay: inhibition of PKC binding to recombinant RACK1 by peptides; design: species or system rat; settings: 10 μM peptide preincubated with PKC isozyme mixture; compared with binding in the absence of added peptide; n=3
Experimental: Purified recombinant RACK1 protein (100-250 μg per lane, produced as detailed in Example 2) was subjected to SDS/PAGE and blotted onto nitrocellulose membranes (Ausubel). The nitrocellulose membranes were cut into strips, which were incubated for 0.5 hr in overlay buffer (Example 1) in the presence or absence of a mixture of PKC isozymes (α, β, γ, ε and .zeta., ~10 nM each final concentration) and PKC activators (60 μg/ml phosphatidylserine (PS), 2 μg/ml diacylglycerol (DG), and 1 mM CaCl2). Unbound material was removed by five washes, 5-min each, in overlay wash buffer. Where indicated, PKC activators were present during the incubation of PKC with the nitrocellulose strips. The conditions for each sample and corresponding results are presented in part D below.
The variation in the overlay protocol consisted of incubating the putative binding peptides with a mixture of PKC isozymes for 15 minutes at room temperature before the mixture was used to contact the nitrocellulose strips containing immobilized RACK1.
Nitrocellulose strips containing immobilized RACK1, that had been contacted with a solution containing a mixture of PKC isozymes, were washed and the area corresponding to the 36 kDa (RACK1-containing) band was cut out. The pieces (containing PKC/RACK1 complexes) were incubated with sample buffer for 10 minutes at 80° C. The sample buffer and the nitrocellulose pieces were then placed in wells in the PAGE gel and subjected to SDS-PAGE to elute the bound proteins. The gel was blotted onto nitrocellulose and a Western blot analysis was carried out using the mixture of antibodies (specific for PKC α, β, γ, δ, ε and .zeta. isozymes) described in Example 1 part B. Bound antibodies were detected by ^125 I-protein A.
Peptides derived from or homologous to WD-40 repeats of RACK1 were tested for their ability to inhibit PKC binding to recombinant RACK1. Binding of PKC to RACK1 was carried out using a variation of the overlay procedure described in Example 3 part B. In the experimental samples, peptides were incubated with a solution containing a mixture of rat brain PKC isozymes (~10 nM each) for 15 minutes at room temperature.
Following completion of the modified overlay protocol, the samples were subjected to the overlay-extraction protocol detailed in part B, above.

βPKC = βPKC (Rattus norvegicus, UniProt P68403); test: Sensitivity of βPKC to Arg-C endopeptidase (nicking); format: biochemical; design: All the solutions contained 5 nM rat brain PKC in peptide overlay buffer; from tissue; host or cells: rat brain; settings: 2.5 μg/ml PS and 50 μM CaCl2; peptide 10 μM; Arg-C 5 units/ml
Excerpt: Upon activation of PKC, a pseudosubstrate autoinhibitory sequence at the N-terminus of the molecule dissociates from the catalytic site and becomes sensitive to endopeptidase Arg-C (Orr, et al.). In the absence of PKC activators, exposure of the 80 kDa βPKC to endopeptidase Arg-C has no effect on the enzyme (see FIG. 7, lane 1). In the presence of the PKC activators PS, DG and calcium, however, exposure of βPKC to Arg-C results in a "nicking" of the PKC (i.e. limited proteolysis generating a 78 kDa fragment and several small fragments (see FIG. 7, lane 2)). Continued exposure to Arg-C results in the disappearance of βPKC (Orr, et al.). The present experiment tests whether peptides derived from the WD-40 region of RACK1 alter the sensitivity of βPKC to endopeptidase Arg-C.
The methods used to assay Arg-C sensitivity are a modification of methods described by Orr, et al. Rat brain PKC (~5 nM) was incubated at room temperature in 500 μl of 20 mM Tris-HCl buffer (pH 7.5) alone or with Arg-C (5 units/ml) in the presence or absence of the indicated peptides (final concentration 10 μM or as indicated), PS, DG, and calcium (as indicated). 50 μl aliquots were removed into 20 μl of sample buffer during the reaction as indicated (samples in all the lanes were incubated for 30 minutes, except lanes 5, and 6, which were incubated for 5 and 15 minutes, respectively). The samples were boiled for 10 minutes at 80° C. and loaded onto 8% SDS-PAGE. βPKC was detected by Western blot analysis using anti-βPKC antibodies as described in Examples 6 and 8.
PKC was incubated for the indicated time alone (lane 1) or in the presence of Arg-C (lanes 2-9), with DG (0.8 μg/ml), PS (50 μg/ml) and CaCl2 (1 mM; lane 2), with PS (50 μg/ml) and CaCl2 (1 mM; lane 3), with PS (2.5 μg/ml) and CaCl2 (50 μM; lane 4); with PS (2.5 μg/ml), CaCl2 (50 μM) and with either peptide rVI (SEQ ID NO:7; 10 μM; lanes 5-7), control peptide (SEQ ID NO: 9; lane 8) or with peptide I (SEQ ID) NO:1; lane 9).

βPKC, sequence (P68403 whole entry, the tested form may be a part): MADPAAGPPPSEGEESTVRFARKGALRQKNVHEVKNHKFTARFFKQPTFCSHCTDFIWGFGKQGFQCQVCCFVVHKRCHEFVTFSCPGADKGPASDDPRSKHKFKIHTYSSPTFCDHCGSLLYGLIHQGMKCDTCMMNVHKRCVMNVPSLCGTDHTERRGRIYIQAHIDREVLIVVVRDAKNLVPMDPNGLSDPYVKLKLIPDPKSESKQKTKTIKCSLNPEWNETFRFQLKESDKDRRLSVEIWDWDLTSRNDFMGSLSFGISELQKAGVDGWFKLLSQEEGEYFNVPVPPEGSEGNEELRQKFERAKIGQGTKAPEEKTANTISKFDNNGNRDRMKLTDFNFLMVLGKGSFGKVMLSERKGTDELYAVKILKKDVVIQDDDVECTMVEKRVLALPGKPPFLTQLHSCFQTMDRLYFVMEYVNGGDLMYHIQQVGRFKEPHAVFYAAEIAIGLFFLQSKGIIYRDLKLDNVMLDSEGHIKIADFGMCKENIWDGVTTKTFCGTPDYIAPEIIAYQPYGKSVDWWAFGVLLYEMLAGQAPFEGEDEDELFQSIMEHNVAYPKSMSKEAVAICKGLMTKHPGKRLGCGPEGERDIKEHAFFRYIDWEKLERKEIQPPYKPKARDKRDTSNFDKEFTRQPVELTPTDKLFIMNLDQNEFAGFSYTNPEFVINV

peptide I: 15-residue peptide homologous to a sequence in the sixth WD-40 repeat of RACK1; PKC antagonist (KGDYEKILVALCGGN)
inhibition of PKC binding to recombinant RACK1 (PKC binding to RACK1): 81±6% | nicking of βPKC by Arg-C (78 kDa fragment) at low concentrations of activators (βPKC): nicking of βPKC did not occur
